From publication PMC10174618, “Monoterpenoid aryl hydrocarbon receptor allosteric antagonists protect against ultraviolet skin damage in female mice” (Nature Communications, 2023)

What was measured:
Assay in all cases: biochemical
Parameters in all cases: KINOMEscan scanMAX active site-directed competition binding assay, percent of control, 468 kinases
Settings in all cases: competition binding, percent of control
[1] = molecular target: T1, ABL1(E255K)-phosphorylated (Homo sapiens, UniProt P00519, E255K)
T1 construct: phosphorylated
How it was run: (§1)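 KINOMEscan active site-directed competition binding assay against 468 human kinases with 100 μM S-carvone. Binding expressed as % of control, with 35% of control as the inhibition threshold.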

CDK4-cyclinD3 = molecular target: T2, CDK4-cyclinD3 (Homo sapiens, UniProt P11802)
T2 construct: cyclinD3
How it was run: as §1

DMPK = DMPK (Homo sapiens, UniProt Q09013)
How it was run: as §1

EPHA2 = EPHA2 (Homo sapiens, UniProt P29317)
How it was run: as §1

FLT1 = FLT1 (Homo sapiens, UniProt P17948)
How it was run: as §1

IKK-beta = molecular target: T3, IKK-beta (Homo sapiens, UniProt O14920)
T3 construct: gene IKBKB
How it was run: as §1

INSRR = INSRR (Homo sapiens, UniProt P14616)
How it was run: as §1

JNK2 = molecular target: T4, JNK2 (Homo sapiens, UniProt P45984)
T4 construct: gene MAPK9
How it was run: as §1

MEK2 = molecular target: T5, MEK2 (Homo sapiens, UniProt P36507)
T5 construct: gene MAP2K2
How it was run: as §1

MYLK2 = MYLK2 (Homo sapiens, UniProt Q9H1R3)
How it was run: as §1

NIM1 = molecular target: T6, NIM1 (Homo sapiens, UniProt Q8IY84)
T6 construct: gene NIM1K
How it was run: as §1

PIP5K2B = molecular target: T7, PIP5K2B (Homo sapiens, UniProt P78356)
T7 construct: gene PIP4K2B
How it was run: as §1

PRKCH = PRKCH (Homo sapiens, UniProt P24723)
How it was run: as §1

RET = RET (Homo sapiens, UniProt P07949)
How it was run: as §1

RIOK3 = RIOK3 (Homo sapiens, UniProt O14730)
How it was run: as §1

ROCK1 = ROCK1 (Homo sapiens, UniProt Q13464)
How it was run: as §1

[2] = molecular target: T8, RSK1(Kin.Dom.2-C-terminal) (Homo sapiens, UniProt Q15418)
T8 construct: gene RPS6KA1; Kin.Dom.2-C-terminal
How it was run: as §1

STK36 = STK36 (Homo sapiens, UniProt Q9NRP7)
How it was run: as §1

TBK1 = TBK1 (Homo sapiens, UniProt Q9UHD2)
How it was run: as §1

TEC = TEC (Homo sapiens, UniProt P42680)
How it was run: as §1

TRPM6 = TRPM6 (Homo sapiens, UniProt Q9BX84)
How it was run: as §1

WEE2 = WEE2 (Homo sapiens, UniProt P0C1S8)
How it was run: as §1

T6 sequence (Q8IY84 whole entry): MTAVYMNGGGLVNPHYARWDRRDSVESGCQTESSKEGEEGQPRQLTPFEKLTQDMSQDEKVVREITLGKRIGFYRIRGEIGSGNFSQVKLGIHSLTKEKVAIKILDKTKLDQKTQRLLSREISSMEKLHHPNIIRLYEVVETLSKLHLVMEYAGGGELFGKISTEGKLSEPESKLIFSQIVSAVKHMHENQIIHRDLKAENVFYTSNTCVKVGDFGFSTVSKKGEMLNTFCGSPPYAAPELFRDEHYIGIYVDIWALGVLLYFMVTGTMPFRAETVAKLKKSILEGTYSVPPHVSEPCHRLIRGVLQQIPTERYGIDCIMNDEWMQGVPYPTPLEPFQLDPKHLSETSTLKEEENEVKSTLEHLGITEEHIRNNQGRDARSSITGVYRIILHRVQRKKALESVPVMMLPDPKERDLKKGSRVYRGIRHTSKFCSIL
T1 sequence (P00519 whole entry E255K): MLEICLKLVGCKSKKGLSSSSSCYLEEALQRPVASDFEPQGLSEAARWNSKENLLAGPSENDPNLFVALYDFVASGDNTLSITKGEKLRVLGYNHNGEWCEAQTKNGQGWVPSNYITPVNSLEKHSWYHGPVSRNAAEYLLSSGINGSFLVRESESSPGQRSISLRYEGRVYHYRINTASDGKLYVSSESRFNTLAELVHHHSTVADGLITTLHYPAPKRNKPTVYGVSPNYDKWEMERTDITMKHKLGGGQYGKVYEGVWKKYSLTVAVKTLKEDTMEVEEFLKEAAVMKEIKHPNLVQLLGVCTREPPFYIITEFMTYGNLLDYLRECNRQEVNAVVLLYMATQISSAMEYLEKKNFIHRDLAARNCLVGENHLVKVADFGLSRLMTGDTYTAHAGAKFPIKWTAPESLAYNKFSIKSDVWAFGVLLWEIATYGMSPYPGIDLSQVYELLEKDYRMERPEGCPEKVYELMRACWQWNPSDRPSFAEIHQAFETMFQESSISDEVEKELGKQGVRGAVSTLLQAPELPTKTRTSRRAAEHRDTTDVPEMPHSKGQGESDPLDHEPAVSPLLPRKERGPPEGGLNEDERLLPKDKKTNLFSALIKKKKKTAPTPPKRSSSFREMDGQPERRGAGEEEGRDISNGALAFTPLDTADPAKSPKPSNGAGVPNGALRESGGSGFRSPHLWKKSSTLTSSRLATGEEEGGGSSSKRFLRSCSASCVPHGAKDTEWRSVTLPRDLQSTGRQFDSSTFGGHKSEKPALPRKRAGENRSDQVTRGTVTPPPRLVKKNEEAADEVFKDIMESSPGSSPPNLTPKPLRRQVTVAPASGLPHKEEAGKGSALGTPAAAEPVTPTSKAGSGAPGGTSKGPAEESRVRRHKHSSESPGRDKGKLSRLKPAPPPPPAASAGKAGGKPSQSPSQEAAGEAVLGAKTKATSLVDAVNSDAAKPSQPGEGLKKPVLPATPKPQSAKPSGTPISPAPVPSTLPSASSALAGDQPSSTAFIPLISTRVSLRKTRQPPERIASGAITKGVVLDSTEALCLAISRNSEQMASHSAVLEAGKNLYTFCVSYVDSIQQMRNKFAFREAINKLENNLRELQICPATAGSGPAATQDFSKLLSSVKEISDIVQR
Chain of RIOK3 (O14730 whole entry): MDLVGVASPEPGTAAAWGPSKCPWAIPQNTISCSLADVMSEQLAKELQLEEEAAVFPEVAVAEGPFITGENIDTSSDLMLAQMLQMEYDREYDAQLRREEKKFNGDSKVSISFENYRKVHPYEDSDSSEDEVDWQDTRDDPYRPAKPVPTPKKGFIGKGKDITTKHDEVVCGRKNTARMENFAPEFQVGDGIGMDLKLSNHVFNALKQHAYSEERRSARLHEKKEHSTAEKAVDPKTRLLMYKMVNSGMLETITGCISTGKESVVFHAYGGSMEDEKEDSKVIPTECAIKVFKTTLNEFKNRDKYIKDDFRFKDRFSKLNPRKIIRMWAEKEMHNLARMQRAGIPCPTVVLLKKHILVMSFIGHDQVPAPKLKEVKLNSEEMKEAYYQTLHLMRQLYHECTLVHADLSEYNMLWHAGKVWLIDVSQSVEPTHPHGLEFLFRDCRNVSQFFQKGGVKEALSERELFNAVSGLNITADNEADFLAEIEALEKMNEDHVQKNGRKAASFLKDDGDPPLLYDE
T5 sequence (P36507 whole entry): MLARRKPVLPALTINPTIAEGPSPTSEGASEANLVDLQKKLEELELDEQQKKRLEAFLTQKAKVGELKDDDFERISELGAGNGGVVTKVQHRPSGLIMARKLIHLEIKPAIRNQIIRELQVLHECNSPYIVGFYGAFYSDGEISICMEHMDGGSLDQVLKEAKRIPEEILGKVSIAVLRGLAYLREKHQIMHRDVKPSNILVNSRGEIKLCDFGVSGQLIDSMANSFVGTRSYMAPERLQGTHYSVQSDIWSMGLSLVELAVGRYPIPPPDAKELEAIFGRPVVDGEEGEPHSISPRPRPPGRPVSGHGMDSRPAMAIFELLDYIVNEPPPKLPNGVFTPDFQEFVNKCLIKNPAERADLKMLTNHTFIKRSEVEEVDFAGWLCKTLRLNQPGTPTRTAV
Chain of ROCK1 (Q13464 whole entry): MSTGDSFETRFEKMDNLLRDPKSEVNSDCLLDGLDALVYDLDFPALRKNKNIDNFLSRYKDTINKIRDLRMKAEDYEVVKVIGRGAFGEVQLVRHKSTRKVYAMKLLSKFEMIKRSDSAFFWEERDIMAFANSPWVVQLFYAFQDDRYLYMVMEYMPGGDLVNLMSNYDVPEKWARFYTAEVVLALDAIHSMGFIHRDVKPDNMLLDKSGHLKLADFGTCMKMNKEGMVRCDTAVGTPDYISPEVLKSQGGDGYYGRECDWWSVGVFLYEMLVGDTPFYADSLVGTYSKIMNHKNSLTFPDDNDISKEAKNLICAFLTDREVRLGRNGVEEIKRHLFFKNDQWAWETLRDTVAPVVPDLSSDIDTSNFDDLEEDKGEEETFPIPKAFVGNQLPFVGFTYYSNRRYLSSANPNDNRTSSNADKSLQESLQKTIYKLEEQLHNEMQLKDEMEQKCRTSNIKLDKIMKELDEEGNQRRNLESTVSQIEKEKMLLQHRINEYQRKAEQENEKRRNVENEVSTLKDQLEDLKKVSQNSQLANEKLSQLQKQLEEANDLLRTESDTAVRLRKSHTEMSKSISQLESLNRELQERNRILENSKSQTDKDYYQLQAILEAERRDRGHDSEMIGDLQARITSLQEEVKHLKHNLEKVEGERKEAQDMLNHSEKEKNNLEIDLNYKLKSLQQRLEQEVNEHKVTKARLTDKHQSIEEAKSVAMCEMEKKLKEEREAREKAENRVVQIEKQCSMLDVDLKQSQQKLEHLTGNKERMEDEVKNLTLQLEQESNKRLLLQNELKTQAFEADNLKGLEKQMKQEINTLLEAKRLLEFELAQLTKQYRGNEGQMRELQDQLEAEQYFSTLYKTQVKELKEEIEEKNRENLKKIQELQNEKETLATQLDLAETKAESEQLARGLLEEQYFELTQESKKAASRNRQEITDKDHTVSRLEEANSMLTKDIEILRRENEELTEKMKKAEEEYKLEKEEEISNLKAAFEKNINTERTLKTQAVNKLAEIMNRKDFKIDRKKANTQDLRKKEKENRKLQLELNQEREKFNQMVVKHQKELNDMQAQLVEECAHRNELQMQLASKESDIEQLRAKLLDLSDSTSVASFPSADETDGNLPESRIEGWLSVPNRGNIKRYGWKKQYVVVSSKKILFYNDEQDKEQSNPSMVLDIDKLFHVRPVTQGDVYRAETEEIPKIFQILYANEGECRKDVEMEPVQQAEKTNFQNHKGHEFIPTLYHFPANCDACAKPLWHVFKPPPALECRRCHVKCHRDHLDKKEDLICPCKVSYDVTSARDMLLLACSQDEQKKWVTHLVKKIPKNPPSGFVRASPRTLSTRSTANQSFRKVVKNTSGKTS
Chain of MYLK2 (Q9H1R3 whole entry): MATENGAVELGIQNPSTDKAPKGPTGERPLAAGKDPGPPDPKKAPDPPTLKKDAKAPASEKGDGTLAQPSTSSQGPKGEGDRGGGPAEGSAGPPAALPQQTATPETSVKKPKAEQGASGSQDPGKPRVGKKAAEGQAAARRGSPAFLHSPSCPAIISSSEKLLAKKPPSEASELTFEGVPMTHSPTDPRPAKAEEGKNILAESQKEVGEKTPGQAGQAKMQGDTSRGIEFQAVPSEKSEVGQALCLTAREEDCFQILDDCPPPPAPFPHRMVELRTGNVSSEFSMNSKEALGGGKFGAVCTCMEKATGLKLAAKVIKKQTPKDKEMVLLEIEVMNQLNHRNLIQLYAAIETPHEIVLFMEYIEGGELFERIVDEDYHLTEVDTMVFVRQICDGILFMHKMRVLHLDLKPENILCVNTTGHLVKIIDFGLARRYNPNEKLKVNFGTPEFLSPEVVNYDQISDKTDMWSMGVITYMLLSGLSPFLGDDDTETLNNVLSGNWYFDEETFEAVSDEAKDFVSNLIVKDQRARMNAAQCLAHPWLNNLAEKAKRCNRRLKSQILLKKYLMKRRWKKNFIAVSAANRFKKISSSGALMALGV
Chain of DMPK (Q09013 whole entry): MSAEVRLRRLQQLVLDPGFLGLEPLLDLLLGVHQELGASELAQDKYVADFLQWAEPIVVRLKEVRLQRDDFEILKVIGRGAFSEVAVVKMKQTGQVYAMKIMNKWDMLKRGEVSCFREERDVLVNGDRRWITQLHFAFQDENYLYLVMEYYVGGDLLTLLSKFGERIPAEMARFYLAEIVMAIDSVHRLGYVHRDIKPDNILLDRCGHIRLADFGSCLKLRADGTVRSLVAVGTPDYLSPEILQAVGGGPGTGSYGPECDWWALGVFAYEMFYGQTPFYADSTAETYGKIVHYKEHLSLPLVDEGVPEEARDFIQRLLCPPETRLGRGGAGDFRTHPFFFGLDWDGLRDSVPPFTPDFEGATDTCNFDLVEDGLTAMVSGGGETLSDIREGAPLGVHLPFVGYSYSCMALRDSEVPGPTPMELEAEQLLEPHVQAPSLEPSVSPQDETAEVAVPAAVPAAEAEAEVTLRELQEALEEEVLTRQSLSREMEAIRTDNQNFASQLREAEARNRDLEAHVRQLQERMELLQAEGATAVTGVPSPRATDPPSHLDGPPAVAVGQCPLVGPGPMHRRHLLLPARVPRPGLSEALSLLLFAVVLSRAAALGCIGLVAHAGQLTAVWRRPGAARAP

remaining binding at 100 µM [1]: 72%
remaining binding at 100 µM (CDK4-cyclinD3): 86%
remaining binding at 100 µM (DMPK): 94%
remaining binding at 100 µM (EPHA2): 71%
remaining binding at 100 µM (FLT1): 91%
remaining binding at 100 µM (IKK-beta): 72%
remaining binding at 100 µM (INSRR): 84%
remaining binding at 100 µM (JNK2): 95%
remaining binding at 100 µM (MEK2): 86%
remaining binding at 100 µM (MYLK2): 100%
remaining binding at 100 µM (NIM1): 65%
remaining binding at 100 µM (PIP5K2B): 100%
remaining binding at 100 µM (PRKCH): 73%
remaining binding at 100 µM (RET): 82%
remaining binding at 100 µM (RIOK3): 89%
remaining binding at 100 µM (ROCK1): 100%
remaining binding at 100 µM [2]: 54%
remaining binding at 100 µM (STK36): 69%
remaining binding at 100 µM (TBK1): 64%
remaining binding at 100 µM (TEC): 96%
remaining binding at 100 µM (TRPM6): 87%
remaining binding at 100 µM (WEE2): 88%
Compound: C=C(C)[C@H]1CC=C(C)C(=O)C1 [S-carvone]
